# Results reported in PMC7612365 (Cancer Discovery, 2021).
# Like-named read-outs stand apart in the source and are kept apart here.
# Key:
# [1] = substrates of efflux transporters ABCB1 (P-gp) and/or ABCG2 (BCRP) ref 27, 28; cited from earlier work
# [2] = cited from earlier work
# ABCG2 (BCRP) = target: T1, ABCG2 (BCRP) (Homo sapiens, UniProt Q9UNQ0); assay: Caco-2 permeability assay with BCRP substrate E3S; format: in vitro ADME; settings: for interaction with BCRP / B–A apparent permeability of control substrate: Caco-2
# T1 construct: Apparent permeability (Papp) was determined in the Caco-2 human colon carcinoma cell line; endogenous in cells; host or cells: Caco-2
# T1 sequence (Q9UNQ0 1-655): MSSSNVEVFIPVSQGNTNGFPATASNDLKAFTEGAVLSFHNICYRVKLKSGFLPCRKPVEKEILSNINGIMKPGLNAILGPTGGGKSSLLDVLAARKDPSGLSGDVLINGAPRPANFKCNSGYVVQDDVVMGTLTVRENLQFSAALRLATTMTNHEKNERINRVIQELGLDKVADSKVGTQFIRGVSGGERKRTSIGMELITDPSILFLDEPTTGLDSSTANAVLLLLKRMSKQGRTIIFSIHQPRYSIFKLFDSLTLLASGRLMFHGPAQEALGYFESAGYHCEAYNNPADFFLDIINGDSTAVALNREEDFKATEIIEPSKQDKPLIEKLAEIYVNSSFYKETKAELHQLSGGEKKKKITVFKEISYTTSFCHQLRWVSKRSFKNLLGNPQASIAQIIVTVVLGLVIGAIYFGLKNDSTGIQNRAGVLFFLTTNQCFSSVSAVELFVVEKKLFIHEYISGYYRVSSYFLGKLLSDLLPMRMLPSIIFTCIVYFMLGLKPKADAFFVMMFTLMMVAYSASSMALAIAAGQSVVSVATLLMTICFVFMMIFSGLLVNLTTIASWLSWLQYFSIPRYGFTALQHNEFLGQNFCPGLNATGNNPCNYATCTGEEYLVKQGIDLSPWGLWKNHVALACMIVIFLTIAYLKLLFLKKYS
# Description: (§1) Apparent permeability (Papp) was determined in the Caco-2 human colon carcinoma cell line. Cells were maintained (DMEM with 10% FBS, penicillin, and streptomycin) in a humidified atmosphere with 5%CO2/95% air for 10 days. Cells were plated out onto a cell culture assembly plate (Millipore), and monolayer confluency was checked using a transepithelial electrical resistance (TEER) electrode prior to the assay. Media were washed off and replaced in the appropriate apical and basal wells with Hank's Balanced Salt Solution buffer (pH 7.4). […] LY335979 (P-gp inhibitor) and Ko134 (BCRP inhibitor) were used as positive controls. The Caco-2 plate was incubated for 2 hours at 37°C in a humidified atmosphere with 5% CO2, and Lucifer yellow was used to confirm membrane integrity after the assay. Samples from the apical and basolateral chambers were analyzed using reverse chromatography tandem mass spectrometry on a Waters TQ-S.
# ABCB1 (P-gp) [3] = target: T2, ABCB1 (P-gp) (Homo sapiens, UniProt P08183); assay: Caco-2 permeability assay with P-gp substrate indinavir
# Description: as §1
# [4] = up to 70 mg weekly ref 54; cited from earlier work
# ABCB1 (P-gp) [5] = target: T2, ABCB1 (P-gp); settings: Caco-2
# Description: as §1
# [6] = Vandetanib brain concentration in non-tumor-bearing mice (LC-MS/MS); format: in vivo, mouse; settings: with everolimus compared with vandetanib alone, P = 0.0854
# Description: Plasma and brain tissue samples were taken in triplicate at 1 hour after the last dose. Analysis was carried out by LC-MS/MS using a Xevo TQS coupled with an Acquity UPLC H-class system (Waters). Chromatography was carried out using a Phenomenex C18 X-B column (2.6 μm, 50 × 2.1 mm). Data acquisition was performed using Targetlynx, version 4.1, and modeling was carried out using Phoenix WinNonlin version 6.3.
# DIPG = settings: cited from earlier work
# [7] = Vandetanib concentration in brain and tumor of NSG mice; format: in vivo; settings: mouse, intraperitoneal, combined with everolimus
# Description: (§2) Both patient-derived H3F3A^K27M, ACVR1^R206H HSJD-DIPG-007 cells and those derived from a Nestin-Tv-a; Trp53^fl/fl; Hist1h3b^K27M, Acvr1^R206H ([14]) GEMM were used for orthotopic implantation. A single-cell suspension of each culture was made the day before implantation and cultured overnight. On the implantation day, small tumorspheres in exponential growth were harvested by mild centrifugation. Three-week-old female athymic mice were anesthetized with 100 mg/kg ketamine and 10 mg/kg xylazine and immobilized in a stereotaxic apparatus (Stoelting) at coordinates x+0.5 and y−5.4 from the bregma suture. HSJD-DIPG-007 tumorspheres (5 × 10^5 cells), suspended in 5 μL Matrigel (BD Biosciences), were injected at a 3.1-mm depth (targeting the fourth ventricle) with a dull 22-gauge needle attached to a 50-μL syringe (Hamilton), using a stereotaxic arm. The animals (n = 72) were divided in four groups, with treatment starting 4 weeks (day 25) after tumor inoculation. […] Mice were monitored by daily weighing and sacrificed by decapitation upon deterioration of condition or 20% weight loss from the maximum weight achieved, with tissue taken for further analysis. Mouse brains collected at the end of the efficacy study were processed for IHC. […]
# [8] = test system: ACVR1-mutant and wild-type patient-derived DIPG cells; assay: Single-agent cell viability in patient-derived DIPG cells; settings: in vitro; P = 0.0272
# Description: Cells were plated at a density of 2,000 to 4,000 cells/well on laminin-coated 96-well plates in a minimum of triplicates. After 3 days of incubation, compounds were added to each well and incubated at 37°C in 5% CO2, 95% humidity for 8 days (192 hours). […] Cell viability was assessed by the CellTiter-Glo luminescent cell viability assay (Promega).
# [9] = Vandetanib concentration in brain and tumor of nude mice; format: in vivo; settings: female, athymic nude, mouse, intraperitoneal, combined with everolimus
# Description: as §2
# [10] = with everolimus to inhibit P-gp and BCRP ref 41; cited from earlier work
# T2 sequence (P08183 whole entry): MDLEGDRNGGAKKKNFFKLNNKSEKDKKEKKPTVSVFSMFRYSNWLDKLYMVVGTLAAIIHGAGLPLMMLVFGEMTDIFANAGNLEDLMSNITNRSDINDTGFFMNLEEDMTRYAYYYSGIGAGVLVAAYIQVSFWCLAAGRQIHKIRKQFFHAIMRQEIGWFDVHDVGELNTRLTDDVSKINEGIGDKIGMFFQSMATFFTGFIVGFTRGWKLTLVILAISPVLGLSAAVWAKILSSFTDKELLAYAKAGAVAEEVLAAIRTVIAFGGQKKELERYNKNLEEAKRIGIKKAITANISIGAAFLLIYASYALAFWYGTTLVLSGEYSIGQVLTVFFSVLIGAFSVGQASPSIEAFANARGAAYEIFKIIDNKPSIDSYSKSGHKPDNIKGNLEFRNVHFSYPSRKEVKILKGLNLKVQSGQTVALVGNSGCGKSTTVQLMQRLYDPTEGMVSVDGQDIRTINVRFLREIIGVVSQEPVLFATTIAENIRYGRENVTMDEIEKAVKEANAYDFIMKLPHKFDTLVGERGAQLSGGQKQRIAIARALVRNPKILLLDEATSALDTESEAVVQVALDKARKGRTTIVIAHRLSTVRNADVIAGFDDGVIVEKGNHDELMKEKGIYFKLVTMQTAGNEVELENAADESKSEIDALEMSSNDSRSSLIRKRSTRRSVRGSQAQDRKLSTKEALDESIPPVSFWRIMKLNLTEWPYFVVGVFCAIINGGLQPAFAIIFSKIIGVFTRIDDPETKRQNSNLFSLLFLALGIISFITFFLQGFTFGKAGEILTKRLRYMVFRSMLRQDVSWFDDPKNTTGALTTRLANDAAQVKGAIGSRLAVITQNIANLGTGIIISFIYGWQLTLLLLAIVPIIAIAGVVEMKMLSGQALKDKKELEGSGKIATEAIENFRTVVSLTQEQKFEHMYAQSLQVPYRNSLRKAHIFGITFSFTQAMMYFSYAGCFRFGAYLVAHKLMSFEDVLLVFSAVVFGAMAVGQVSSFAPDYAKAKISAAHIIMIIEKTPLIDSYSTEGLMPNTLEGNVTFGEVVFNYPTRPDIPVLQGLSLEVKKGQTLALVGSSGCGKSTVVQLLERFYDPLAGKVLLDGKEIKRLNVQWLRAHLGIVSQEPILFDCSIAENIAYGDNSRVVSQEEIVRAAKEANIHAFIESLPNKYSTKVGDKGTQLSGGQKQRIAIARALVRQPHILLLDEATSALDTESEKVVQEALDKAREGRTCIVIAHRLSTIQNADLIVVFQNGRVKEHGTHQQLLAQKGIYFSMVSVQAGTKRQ
smiles,measurement,setting,value
C[C@@H](Oc1cc(-c2cnn(C3CCNCC3)c2)cnc1N)c1c(Cl)ccc(F)c1Cl [crizotinib],brain exposure,[1],insufficient brain exposures
CO[C@H]1C[C@@H]2CC[C@@H](C)[C@@](O)(O2)C(=O)C(=O)N2CCCC[C@H]2C(=O)O[C@H]([C@H](C)C[C@@H]2CC[C@@H](OCCO)[C@H](OC)C2)CC(=O)[C@H](C)/C=C(\C)[C@@H](O)[C@@H](OC)C(=O)[C@H](C)C[C@H](C)/C=C/C=C/C=C/1C [everolimus],MTD and recommended phase II dose of everolimus,[2]; in combination with vandetanib ref 42,10 mg once daily
same,interaction with BCRP / B–A apparent permeability of control substrate,ABCG2 (BCRP),significantly decreased
same,interaction with P-gp / B–A apparent permeability of control substrate,ABCB1 (P-gp) [3],significantly decreased
same,mean peak levels compared with standard regimens,[4],tenfold higher
same,tolerability of higher doses,[4],well tolerated
COc1cc2c(Nc3ccc(Br)cc3F)ncnc2cc1OCC1CCN(C)CC1 [vandetanib],interaction with P-gp / B–A apparent permeability of control substrate,ABCB1 (P-gp) [5],weak interactions
same,MTD and recommended phase II dose of vandetanib,[2]; in combination with everolimus ref 42,300 mg once daily
same,increase of median brain concentration of vandetanib,[6],56%
same,DLT (diarrhea grade 3),DIPG; in vivo,one
same,RP2D,DIPG; in vivo,145 mg/m^2/d
same,patients with grade 4 hypertension and posterior reversible encephalopathy syndrome,DIPG; in vivo,two
same,2-year OS,DIPG; single agent ref 32,21.4%
same,MTD,DIPG; single agent ref 32,not reached
same,objective responses,DIPG; single agent ref 32,no objective responses
same,interaction with BCRP / B–A apparent permeability of control substrate,ABCG2 (BCRP),weak interactions
same,effect of adding vandetanib to everolimus on BCRP substrate permeability,"ABCG2 (BCRP); Caco-2, combination",no effect
same,concentration at 2 h,[7]; normal brain,10 µM
same,concentration at 2 h,[7]; tumour (GEMM allograft),< 5 µM
same,"enhanced difference in cell viability, ACVR1-mutant compared with wild-type DIPG cells",[8],approximately twofold
same,brain exposure,[1],insufficient brain exposures
same,concentration at 2 h,[9]; normal brain,> 15 µM
same,concentration at 2 h,[9]; tumour (PDX),> 15 µM
same,vandetanib brain concentrations in mice,[10],significantly increased
